In patent US9757484B2 (Otonomy, Inc., priority 2014, dated 2017):

Assays:
[1] = Loss on drying (form anhydrous/hydrate of ciprofloxacin); type: physicochemical; conditions: solid dried 40° C. oven 24 hours, then 125° C. oven one hour; weight loss due to 125° C.
Procedure: To assess the form of ciprofloxacin samples described in the present disclosure, a comparison experiment is conducted to evaluate the sample's loss of weight upon heating. […] The conditions and results of the experiment are summarized below:
Experimental Setup—Loss on Drying: • If suspension: Pipette cipro suspension onto filter on vacuum filter flask • Transfer filter/dry powder to 40° C. oven, hold 24 hours • Transfer solid to pre-weighed aluminum pan and weigh solid • Transfer pan to 125° C. oven, hold one hour • Weigh again and determine weight loss due to 125° C.

[2] = Particle size (D90) of ciprofloxacin; type: physicochemical
Excerpt: The final drug product has particle size of D90 of about 25 μm. […] In some embodiments, it is the use of a lower sterilization temperature and homogenization of the suspension during the sterilization process that contributes to the particle size distribution of ciprofloxacin in the suspension, and in the final product.

| Weight Loss on Drying [1] [%] | particle size D90 ([2]; listed as Ciprofloxacin free base anhydrous API powder) | particle size D90 ([2]; listed as hydrate form) | Structure (SMILES) |
| --- | --- | --- | --- |
| 0.1 | under 15 μm | – | O=C(O)c1cn(C2CC2)c2cc(N3CCNCC3)c(F)cc2c1=O [Sample 1, Ciprofloxacin] |
| 11.1 | – | around 60 μm | O=C(O)c1cn(C2CC2)c2cc(N3CCNCC3)c(F)cc2c1=O [Sample 2, Ciprofloxacin] |
